The values that follow come from patent US20060084599A1, “Compositions, methods and kits relating to notch signaling” (Maine Medical Center, priority 2003, published 2006).

Marks after values point to notes of the source that are not given here.

The test system of one assay is Src. The experiment in a line: Src pY418 immunoblot. It counts as cell-based, mouse. Conditions: stable NIH 3T3 cell transfectants expressing the ligand. As to the method:
Immunoblot Analysis. Cell lysates from insert-less vector sDl1 and sJ1 NIH 3T3 cell transfectants were prepared in 20 mM Tris HCl, pH 7.5, containing 300 mM sucrose, 60 mM—KCl, 15 mM NaCl, 0.5 mM EDTA, 0.5% (v/v) Triton X-100, 1 mM phenylmethylsulfonyl fluoride, 10 μg/ml leupeptin, 2 μg/ml aprotinin, 0.1% (w/v) deoxycholic acid and 1 mM sodium orthovanadate. Samples of equal protein content were subjected to SDS-PAGE and immunoblot analysis was performed as previously described (Small et al., 2001, J. Biol. Chem. 276:32022-32030) using either a rabbit anti-Src [pY418] phosphospecific antibody (Biosource International), a rabbit anti-total Src antibody (Santa Cruz Biotechnology), a rabbit polyclonal anti-cortactin antibody (a gift from Dr. Xi Zhan, American Red Cross), or an anti-phosphotyrosine antibody (Upstate). Immunoprecipitation of cortactin was performed as previously described (Zhan et al., 1993, J. Biol. Chem. 268:24427-24431).
(In western blotting, separated proteins are transferred to a membrane and probed.)

The subject of assay [1] is NIH 3T3 cell transfectants. The assay can be described thus: Colony formation in soft agar (anchorage-independent growth). The settings on record: stable NIH 3T3 cell transfectants expressing the ligand. It counts as cell-based, murine. As to the method:
Clonal populations of NIH 3T3 cells stably transfected with vector control, soluble Jagged1 (sJ1), constitutively active Notch1 (caN1), constitutively active Notch 2 (caN2), dominant negative Notch 1 (dnN1), dominant negative Notch 2 (dnN2), an oncogenic mutant of FGF1 engineered with the FGF4 signal peptide sequence (hst-β (FGF4):FGF1), or constitutively active oncogenic Ras construct (caRas), were plated on 6 cm tissue culture dishes with 0.5% agar in an overlay containing DMEM (Gibco BRL) media, 10% bovine calf serum (BCS; Hyclone), and 0.33% agar at 1.5×10^3 cells/dish. As indicated, some dishes were also treated with 1 μM of the FGFR1-specific inhibitor, PD166866 (Panek et al., 1998, J. Pharmacol. Exp. Ther. 286: 569-577) and/or 10 ng/ml recombinant human FGF1 and 10 U/ml heparin (Sigma). Cells were fed with 0.5 ml of media with or without FGF1 and/or the FGFR1-specific inhibitor every 3 days as indicated. Twenty days after plating, colonies were stained with p-iodonitrotetrazolium violet (Sigma) for visualization. Quantitation of colony formation was achieved by counting all p-iodonitrotetrazolium violet-stained colonies consisting of more than 4 cells under a Zeiss Stemi SVII Apo dissecting microscope.
Anchorage-Dependent and -Independent Cell Growth Assays. Approximately 3×10^4 cells were plated on fibronectin (10 μg/cm^2)-coated in 12-well cell culture dishes (Falcon) in DMEM containing 10% BCS (v/v) (Hyclone). Three wells of the individual NIH 3T3 cell transfectants were harvested every third day and cell number was quantitated using a hemocytometer. Anchorage-independent cell growth was evaluated by plating in duplicate approximately 1.7×10^3 cells in DMEM containing 0.5% (w/v) agar (Sigma) 10% (v/v) BCS into 5 cm plastic dishes (Falcon) as previously described (Small et al., 2003, J. Biol. Chem. 278:16405-16413).

The subject of a further assay is NIH 3T3 cells. The experiment in a line: Cell migration (scratch) assay. In kind it is cell-based, mouse. Conditions: stable NIH 3T3 cell transfectants expressing the ligand. As to the method:
Cell Migration Assay. Approximately 10^5 Sj1 or sDl1 NIH 3T3 cells were plated in 6-well plastic plates (Falcon) DMEM supplemented with 10% (w/v) bovine calf serum (BCS; Hyclone) and after the cells reached approximately 60-70% confluence, the cell monolayer was scratched using a plastic cell scraper. Photomicrographs were taken immediately after the injury and 24 hours and 48 hours later.

Assay [2] deals with FGF gene family transcripts. The assay can be described thus: RT-PCR of FGF gene family expression. In kind it is cell-based, murine. Conditions: stable NIH 3T3 cell transfectants expressing the ligand. As to the method:
Total RNA from vector control, sJ1, caN1 and dnN1 stable transfectants was isolated using Tri Reagent™ (Sigma) according to the manufacturer's protocol. cDNA was obtained from 5 μg total RNA with SuperScript™ (Invitrogen) reverse transcriptase using an oligo dT primer (Invitrogen). The following specific primers were purchased from IDT and used for RT-PCR analysis. Sense primers are indicated by (s); Antisense primers are indicated by (as): […]
PCR amplification was performed for 45 cycles as follows: 40 seconds at 94° C., 40 seconds at 50° C. (for FGF2, FGF3, FGF4 and FGFR3) or at 55° C. (for FGF6, FGF7, FGF8, FGF9, FGF10, FGFR1 and FGFR2), 1 minute at 72° C. For FGF5, RT-PCR analysis was performed as described (Ozawa et al., 1998, J. Biol. Chem. 273: 29262-29271) and all amplified DNA was visualized with ethidium bromide on 1.5% agarose gels.

Another assay deals with NCSC populations. The assay can be described thus: Clonogenic differentiation assay of NCSC: ligand pre-incubation, then BMP2 challenge. In kind it is cell-based, mouse. The settings on record: then 1 ng/ml BMP2 seven days, mean ± SD. As to the method:
Clonogenic assays were performed as described (Stemple et al., 1992, Cell 71:973-985). Briefly, populations of murine NCSC were plated at a clonal density and maintained for a maximum of 14 days in Morrison media supplemented with 15% chick embryo extract (Morrison et al., 1999, Cell 96:737-749). The resulting clones were fixed in an acetic acid:ethanol solution (2:1) and stained with antibodies against peripherin (Chemicon) to detect neurons, smooth muscle actin (Sigma) to detect myofibroblasts, and GFAP (Chemicon) to detect Schwann cells. Clones were scored based on the appearance of just one phenotypic representative. The number and percentage of clones containing neurons only (N), Schwann cells only (S), myofibroblasts only (M), N+S, N+M, N+S+M, and S+M were scored at day 14 unless otherwise stated. The production of each representative phenotype in each individual clone was also scored to complement the clonal population assay.
NCSC Retain Neurogenic capacity in the presence of sJ1. A clonogenic differentiation assay was performed using mouse NSCS populations as described previously (Kubu et al., 2002, Dev. Biol. 244:199-214; Stemple et al., 1992, Cell 71:973-985). The cells were incubated in Stemple media (Stemple et al., 1992) with or without 5 nM sDl1 or 7.5 nM sJ1 for the time periods set forth in Table 1. After the initial incubation period, cells were washed and neuronal differentiation was challenged in the presence of 1 ng/ml BMP2 for an additional seven days. The resulting clones were fixed and stained for detection of neural crest markers. The data disclosed in Table 1 is presented as the percentage of glial-only, neuron-only, and neuron colonies containing either smooth muscle or glial markers as the mean ± standard deviation (SD) of three experiments originating from three independent cell isolations. Note the retention of neurogenic differentiation capacity in sJ1-treated cells (*=p<0.01) compared with the sDl1-treated cells.

Setting [3] is: 5 nM sDl1 or 7.5 nM sJ1 for 24 hrs.

Consider “sJ1: Soluble Jagged1, amino acid residues about 1 to 1067 (SEQ ID NO:3) of full-length human Jagged1”, for which the “level of active Src” value in the assay on Src was “increase in the level of active Src”. Moreover, the “anchorage-independent growth of transfectants” value in assay [1] was “form colonies in soft agar”. The migratory behavior result with NIH 3T3 cells is listed as “exhibited a decrease in their migratory potential”. For the same molecule, the “FGF gene family mRNA expression in transfectants” value in assay [2] was “expression of mRNAs encoding FGF1, FGF3, FGF4, and FGF5”. The Glial-Only colonies is 0% with NCSC populations (setting [3]), 0.8 ± 1.4%* with NCSC populations (7.5 nM sJ1 for 72 hrs), 5.82 ± 3.4%* with NCSC populations (7.5 nM sJ1 for 120 hrs) and 13.3 ± 4.5%* in the assay with NCSC populations (7.5 nM sJ1 for 168 hrs). Also, the Neuron-Containing colonies was found to be 71.4 ± 6.2%* in the assay with NCSC populations (setting [3]), 74.8 ± 16.3%* with NCSC populations (7.5 nM sJ1 for 72 hrs), 52.01 ± 14.1%* in the assay on NCSC populations (7.5 nM sJ1 for 120 hrs) and 35.03 ± 9.1% in the assay with NCSC populations (7.5 nM sJ1 for 168 hrs). In addition, the Neuron-Only colonies is 54.4 ± 8.4%* in the assay with NCSC populations (setting [3]), 42.8 ± 6.6%* in the assay on NCSC populations (7.5 nM sJ1 for 72 hrs), 13.43 ± 6.5%* in the assay on NCSC populations (7.5 nM sJ1 for 120 hrs) and 6.5 ± 1.3%* in the assay on NCSC populations (7.5 nM sJ1 for 168 hrs).

B1: sDl1: soluble non-transmembrane form (extracellular domain) of the Notch ligand Delta1 (protein)
chain: QVWSSGVFELKLQEFVNKKGLLGNRNCCRGGAGPPPCACRTFFRVCLKHYQASVSPEPPCTYGSAVTPVLGVDSFSLPDGGGADSAFSNPIRFPFGFTWPGTFSLIIEALHTDSPDDLATENPERLISRLATQRHLTVGEEWSQDLHSSGRTDLKYSYRFVCDEHYYGEGCSVFCRPRDDAFGHFTCGERGEKVCNPGWKGPYCTEPICLPGCDEQHGFCDKPGECKCRVGWQGRYCDECIRYPGCLHGTCQQPWQCNCQEGWGGLFCNQDLNYCTHHKPCKNGATCTNTGQGSYTCSCRPGYTGATCELGIDECDPSPCKNGGSCTDLENSYSCTCPPGFYGKICELSAMTCADGPCFNGGRCSDSPDGGYSCRCPVGYSGFNCEKKIDYCSSSPCSNGAKCVDLGDAYLCRCQAGFSGRHCDDNVDDCASSPCANGGTCRDGVNDFSCTCPPGYTGRNCSAPVSRCEHAPCHNGATCHERGHRYVCECARGYGGPNCQFLLPELPPGPAVVDLTEKLEGQGGPFPW
modifications: left off: small tags and cut ends
notes: soluble non-transmembrane form (extracellular domain) of the Notch ligand Delta1
As for B1, in the assay on Src, the “level of active Src” value was “increase in the level of active Src”. In addition, the “anchorage-independent growth of transfectants” value in assay [1] is on record as “form colonies in soft agar”. Besides, the migratory behavior result in the assay on NIH 3T3 cells is “displayed normal motility”. In addition, in assay [2], the “FGF gene family mRNA expression in transfectants” value is “express the FGF3, FGF4 and FGF9 transcripts”. Moreover, in the assay with NCSC populations (setting [3]), the Glial-Only colonies is 57.8 ± 9.9%, the Neuron-Containing colonies turned out to be 7.0 ± 5.7% and the Neuron-Only colonies is 0%.
